ChEMBL document CHEMBL1145390, “Synthesis and preliminary biological characterization of new semisynthetic derivatives of ramoplanin” (J Med Chem, 2007)
Converted amounts (≈) assume the structure as drawn.

Legend:
Enterococcus faecalis [1] = assay: Antibacterial activity against vancomycin A-resistant Enterococcus faecalis after 24 hrs by broth microdilution method; assay type: functional; details: read-out: MIC
Enterococcus faecium [2] = assay: Antibacterial activity against Enterococcus faecium after 24 hrs by broth microdilution method; assay type: functional; details: read-out: MIC
[3] = Toxicity assessed as hemolysis in erythrocytes at 180 mg/L; assay type: cell-based, Erythrocyte; details: human, erythrocytes; read-out: Activity
Enterococcus faecium [4] = assay: Antibacterial activity against vancomycin A-resistant Enterococcus faecium clinical isolate after 24 hrs by broth microdilution method; assay type: functional; details: read-out: MIC
Escherichia coli = assay: Antibacterial activity against Escherichia coli SKF-12140 after 24 hrs by broth microdilution method; assay type: functional; details: read-out: MIC
[5] = Toxicity assessed as hemolysis in erythrocytes at 90 mg/L; assay type: cell-based, Erythrocyte; details: human, erythrocytes; read-out: Activity
Streptococcus pyogenes = assay: Antibacterial activity against Streptococcus pyogenes C203 after 24 hrs by broth microdilution method; assay type: functional; details: C203, 24 h, read-out: MIC
Enterococcus faecalis [6] = assay: Antibacterial activity against Enterococcus faecalis after 24 hrs by broth microdilution method; assay type: functional; details: read-out: MIC
Staphylococcus aureus [7] = assay: Antibacterial activity against methicillin-resistant and vancomycin-intermediate resistant Staphylococcus aureus clinical isolate after 24 hrs by broth microdilution method; assay type: functional; details: read-out: MIC
Candida albicans = assay: Antifungal activity against Candida albicans SKF-2270 after 24 hrs by broth microdilution method; assay type: functional; details: read-out: MIC
Staphylococcus aureus [8] = assay: Antibacterial activity against vancomycin-intermediate resistant Staphylococcus aureus clinical isolate after 24 hrs by broth microdilution method; assay type: functional
Staphylococcus aureus [9] = assay: Antibacterial activity against Staphylococcus aureus Smith after 24 hrs by broth microdilution method; assay type: functional; details: read-out: MIC
Staphylococcus aureus [10] = assay: Antibacterial activity against methicillin-resistant Staphylococcus aureus clinical isolate after 24 hrs by broth microdilution method; assay type: functional; details: read-out: MIC

Compound	MIC (Enterococcus faecalis [1]) [µg/mL]	MIC (Enterococcus faecium [2]) [µg/mL]	hemolysis at 180 mg/L [3] [%]	MIC (Enterococcus faecium [4]) [µg/mL]	MIC (Escherichia coli) [µg/mL]	hemolysis at 90 mg/L [5] [%]	MIC (Streptococcus pyogenes) [µg/mL]	MIC (Enterococcus faecalis [6]) [µg/mL]	MIC (Staphylococcus aureus [7]) [µg/mL]	MIC (Candida albicans) [µg/mL]	MIC (Staphylococcus aureus [8]) [µg/mL]	MIC (Staphylococcus aureus [9]) [µg/mL]	MIC (Staphylococcus aureus [10]) [µg/mL]
CC(C)C[C@@H]1NC(=O)CNC(=O)[C@H](c2ccc(O)cc2)NC(=O)[C@@H]([C@@H](C)O)NC(=O)[C@H](c2ccc(O[C@H]3O[C@H](CO)[C@@H](O)[C@H](O)[C@@H]3O[C@H]3O[C@H](CO)[C@@H](O)[C@H](O)[C@@H]3O)cc2)NC(=O)[C@@H](CCCN)NC(=O)[C@H](Cc2ccccc2)NC(=O)[C@H]([C@@H](C)O)NC(=O)[C@@H](c2ccc(O)cc2)NC(=O)[C@H](c2ccc(O)cc2)NC(=O)[C@@H](C(C)C)NC(=O)[C@@H](CCCN)NC(=O)[C@@H](c2ccc(O)cc2)NC(=O)[C@@H](CNC(=O)[C@H](CC(N)=O)NC(=O)c2ccc(Cl)cc2)[C@@H](C(N)=O)OC(=O)[C@H](c2ccc(O)c(Cl)c2)NC(=O)[C@@H](C)NC1=O	0.5 (≈ 0.195 µM)	0.5 (≈ 0.195 µM)	13	0.5 (≈ 0.195 µM)	> 32	5	< 0.03	0.5 (≈ 0.195 µM)	4 (≈ 1.56 µM)	> 32	2 (≈ 0.779 µM)	0.5 (≈ 0.195 µM)	1 (≈ 0.389 µM)
CCCCOc1ccc(C(=O)N[C@@H](CC(N)=O)C(=O)NC[C@@H]2C(=O)N[C@H](c3ccc(O)cc3)C(=O)N[C@H](CCCN)C(=O)N[C@H](C(C)C)C(=O)N[C@@H](c3ccc(O)cc3)C(=O)N[C@H](c3ccc(O)cc3)C(=O)N[C@@H]([C@@H](C)O)C(=O)N[C@@H](Cc3ccccc3)C(=O)N[C@H](CCCN)C(=O)N[C@@H](c3ccc(O[C@H]4O[C@H](CO)[C@@H](O)[C@H](O)[C@@H]4O[C@H]4O[C@H](CO)[C@@H](O)[C@H](O)[C@@H]4O)cc3)C(=O)N[C@H]([C@@H](C)O)C(=O)N[C@@H](c3ccc(O)cc3)C(=O)NCC(=O)N[C@@H](CC(C)C)C(=O)N[C@H](C)C(=O)N[C@@H](c3ccc(O)c(Cl)c3)C(=O)O[C@@H]2C(N)=O)cc1	0.25 (≈ 0.0959 µM)	0.25 (≈ 0.0959 µM)	5	0.25 (≈ 0.0959 µM)	> 32	0	0.125 (≈ 0.048 µM)	0.25 (≈ 0.0959 µM)	4 (≈ 1.53 µM)	> 32	4 (≈ 1.53 µM)	0.25 (≈ 0.0959 µM)	0.5 (≈ 0.192 µM)
CCCCCCCOc1ccc(C(=O)N[C@@H](CC(N)=O)C(=O)NC[C@@H]2C(=O)N[C@H](c3ccc(O)cc3)C(=O)N[C@H](CCCN)C(=O)N[C@H](C(C)C)C(=O)N[C@@H](c3ccc(O)cc3)C(=O)N[C@H](c3ccc(O)cc3)C(=O)N[C@@H]([C@@H](C)O)C(=O)N[C@@H](Cc3ccccc3)C(=O)N[C@H](CCCN)C(=O)N[C@@H](c3ccc(O[C@H]4O[C@H](CO)[C@@H](O)[C@H](O)[C@@H]4O[C@H]4O[C@H](CO)[C@@H](O)[C@H](O)[C@@H]4O)cc3)C(=O)N[C@H]([C@@H](C)O)C(=O)N[C@@H](c3ccc(O)cc3)C(=O)NCC(=O)N[C@@H](CC(C)C)C(=O)N[C@H](C)C(=O)N[C@@H](c3ccc(O)c(Cl)c3)C(=O)O[C@@H]2C(N)=O)cc1	2 (≈ 0.755 µM)	2 (≈ 0.755 µM)	21	1 (≈ 0.378 µM)	> 32	0	2 (≈ 0.755 µM)	2 (≈ 0.755 µM)	16 (≈ 6.04 µM)	> 32	8 (≈ 3.02 µM)	8 (≈ 3.02 µM)	4 (≈ 1.51 µM)
CCc1ccc(C(=O)N[C@@H](CC(N)=O)C(=O)NC[C@@H]2C(=O)N[C@H](c3ccc(O)cc3)C(=O)N[C@H](CCCN)C(=O)N[C@H](C(C)C)C(=O)N[C@@H](c3ccc(O)cc3)C(=O)N[C@H](c3ccc(O)cc3)C(=O)N[C@@H]([C@@H](C)O)C(=O)N[C@@H](Cc3ccccc3)C(=O)N[C@H](CCCN)C(=O)N[C@@H](c3ccc(O[C@H]4O[C@H](CO)[C@@H](O)[C@H](O)[C@@H]4O[C@H]4O[C@H](CO)[C@@H](O)[C@H](O)[C@@H]4O)cc3)C(=O)N[C@H]([C@@H](C)O)C(=O)N[C@@H](c3ccc(O)cc3)C(=O)NCC(=O)N[C@@H](CC(C)C)C(=O)N[C@H](C)C(=O)N[C@@H](c3ccc(O)c(Cl)c3)C(=O)O[C@@H]2C(N)=O)cc1	1 (≈ 0.39 µM)	1 (≈ 0.39 µM)	62	1 (≈ 0.39 µM)	> 32	36	< 0.03	1 (≈ 0.39 µM)	4 (≈ 1.56 µM)	> 32	> 32	0.5 (≈ 0.195 µM)	1 (≈ 0.39 µM)
CCCCCCCCCCCCCC(=O)N[C@@H](CC(N)=O)C(=O)NC[C@@H]1C(=O)N[C@H](c2ccc(O)cc2)C(=O)N[C@H](CCCN)C(=O)N[C@H](C(C)C)C(=O)N[C@@H](c2ccc(O)cc2)C(=O)N[C@H](c2ccc(O)cc2)C(=O)N[C@@H]([C@@H](C)O)C(=O)N[C@@H](Cc2ccccc2)C(=O)N[C@H](CCCN)C(=O)N[C@@H](c2ccc(O[C@H]3O[C@H](CO)[C@@H](O)[C@H](O)[C@@H]3O[C@H]3O[C@H](CO)[C@@H](O)[C@H](O)[C@@H]3O)cc2)C(=O)N[C@H]([C@@H](C)O)C(=O)N[C@@H](c2ccc(O)cc2)C(=O)NCC(=O)N[C@@H](CC(C)C)C(=O)N[C@H](C)C(=O)N[C@@H](c2ccc(O)c(Cl)c2)C(=O)O[C@@H]1C(N)=O	4 (≈ 1.51 µM)	8 (≈ 3.03 µM)	59	4 (≈ 1.51 µM)	> 32	2	4 (≈ 1.51 µM)	4 (≈ 1.51 µM)	32 (≈ 12.1 µM)	> 32	32 (≈ 12.1 µM)	16 (≈ 6.06 µM)	16 (≈ 6.06 µM)
CCCCOc1ccc(C(=O)N[C@@H](CC(N)=O)C(=O)NC[C@@H]2C(=O)N[C@H](c3ccc(O)cc3)C(=O)N[C@H](CCCN)C(=O)N[C@H](C(C)C)C(=O)N[C@@H](c3ccc(O)cc3)C(=O)N[C@H](c3ccc(O)cc3)C(=O)N[C@@H]([C@@H](C)O)C(=O)N[C@@H](Cc3ccccc3)C(=O)N[C@H](CCCN)C(=O)N[C@@H](c3ccc(O[C@H]4O[C@H](CO)[C@@H](O)[C@H](O)[C@@H]4O[C@H]4O[C@H](CO)[C@@H](O)[C@H](O)[C@@H]4O)cc3)C(=O)N[C@H]([C@@H](C)O)C(=O)N[C@@H](c3ccc(O)cc3)C(=O)NCC(=O)N[C@@H](CC(C)C)C(=O)N[C@H](C)C(=O)N[C@@H](c3ccc(O)c(Cl)c3)C(=O)O[C@@H]2C(N)=O)cc1OCCCC	1 (≈ 0.373 µM)	1 (≈ 0.373 µM)	47	1 (≈ 0.373 µM)	> 32	0	1 (≈ 0.373 µM)	1 (≈ 0.373 µM)	16 (≈ 5.97 µM)	> 32	16 (≈ 5.97 µM)	2 (≈ 0.747 µM)	8 (≈ 2.99 µM)
CCCCCCCCc1ccc(C(=O)N[C@@H](CC(N)=O)C(=O)NC[C@@H]2C(=O)N[C@H](c3ccc(O)cc3)C(=O)N[C@H](CCCN)C(=O)N[C@H](C(C)C)C(=O)N[C@@H](c3ccc(O)cc3)C(=O)N[C@H](c3ccc(O)cc3)C(=O)N[C@@H]([C@@H](C)O)C(=O)N[C@@H](Cc3ccccc3)C(=O)N[C@H](CCCN)C(=O)N[C@@H](c3ccc(O[C@H]4O[C@H](CO)[C@@H](O)[C@H](O)[C@@H]4O[C@H]4O[C@H](CO)[C@@H](O)[C@H](O)[C@@H]4O)cc3)C(=O)N[C@H]([C@@H](C)O)C(=O)N[C@@H](c3ccc(O)cc3)C(=O)NCC(=O)N[C@@H](CC(C)C)C(=O)N[C@H](C)C(=O)N[C@@H](c3ccc(O)c(Cl)c3)C(=O)O[C@@H]2C(N)=O)cc1	4 (≈ 1.51 µM)	4 (≈ 1.51 µM)	72	4 (≈ 1.51 µM)	> 32	95	2 (≈ 0.756 µM)	4 (≈ 1.51 µM)	16 (≈ 6.05 µM)	> 32	16 (≈ 6.05 µM)	8 (≈ 3.02 µM)	8 (≈ 3.02 µM)
CC(C)C[C@@H]1NC(=O)CNC(=O)[C@H](c2ccc(O)cc2)NC(=O)[C@@H]([C@@H](C)O)NC(=O)[C@H](c2ccc(O[C@H]3O[C@H](CO)[C@@H](O)[C@H](O)[C@@H]3O[C@H]3O[C@H](CO)[C@@H](O)[C@H](O)[C@@H]3O)cc2)NC(=O)[C@@H](CCCN)NC(=O)[C@H](Cc2ccccc2)NC(=O)[C@H]([C@@H](C)O)NC(=O)[C@@H](c2ccc(O)cc2)NC(=O)[C@H](c2ccc(O)cc2)NC(=O)[C@@H](C(C)C)NC(=O)[C@@H](CCCN)NC(=O)[C@@H](c2ccc(O)cc2)NC(=O)[C@@H](CNC(=O)[C@H](CC(N)=O)NC(=O)c2cccc3ccccc23)[C@@H](C(N)=O)OC(=O)[C@H](c2ccc(O)c(Cl)c2)NC(=O)[C@@H](C)NC1=O	0.5 (≈ 0.193 µM)	1 (≈ 0.387 µM)	25	1 (≈ 0.387 µM)	> 32	14	≤ 0.03	0.5 (≈ 0.193 µM)	8 (≈ 3.1 µM)	> 32	8 (≈ 3.1 µM)	1 (≈ 0.387 µM)	2 (≈ 0.774 µM)
